These results are taken from patent US11685713B2, “Small molecule SHC blockers used for treating liver disease and metabolic disease” (Buto Corporation, priority 2019, dated 2023).

For test [1], the system named is Methionine Choline-Deficient (MCD) Mouse model NASH. In words: Liver fibrosis markers in the MCD model of Non-alcoholic Steatohepatitis (NASH). The test is classed as in vivo. As to conditions: mice, MCD 8 weeks, 20 mg/kg orally the last 4 weeks, vs placebo. Here is the method:
Mice were fed the Liver fibrosis-inducing Methionine Choline-Deficient (MCD) Mouse model NASH for 8 weeks, and the last 4 weeks they were dosed orally with 20 mg/kg of compound number 3 (RTX60933293), compound number 5 (RTX73145433), or placebo. After 8 weeks of MCD dosing, mice were sacrificed, and livers were extracted for nucleic acids and classical markers of liver fibrosis were assayed by QRTPCR.
Without wishing to be bound by theory, NASH could be considered the next-most common metabolic disturbance after Type 2 Diabetes in the USA, and currently has no approved treatment. There is a usual progression from NAFLD (fatty liver) to the more fibrotic/cirrhotic NASH. While the precise mechanism of the transition of NAFLD to NASH is not completely understood, hepatocyte death and resulting fibrosis has been proposed. Fibrosis and fibrotic scarring are thought to be the most important pathophysiological endpoints to end-stage NASH, which typically necessitates an expensive and difficult liver transplant. As shown in other examples, Shc blockers through their sensitization to insulin, IGF-1 and other growth factors, are cytoprotective. Thus, by inhibiting hepatocyte death which promotes fibrosis, they should also be anti-fibrotic.

Test [2] relates to Corticosterone model of Insulin resistance. Briefly: Glucose Tolerance Test in the Corticosterone model of Insulin resistance. The test is classed as in vivo, mice. As to conditions: for glucose tolerizing effect in the Corticosteroid model: FIG. 3, summary in Example 1E; for GTT: glucose intolerance at time points after glucose administration / GTT Area Under the Curve (AUC): glucose intolerance relative to placebo: mice, corticosterone 21 days, 10 mg/kg i.p. for the final 5 days; for GTT: glucose intolerance at time points after glucose administration: FIG. 3 A/B; for GTT Area Under the Curve (AUC): glucose intolerance relative to placebo: FIG. 3 C. On the procedure:
In a standard model of glucose intolerance and insulin insensitivity, corticosterone (CS) was dosed for 21 days, and in the drug treated group mice were administered Shc Blocker #3=RTX60933293 or #5=RTX73145433 at a dose of 10 mg/kg i.p. for the final 5 days of the 21-day CS treatment. […] By blocking the interaction of Shc protein with phosphotyrosines on the Insulin Receptor, a Shc blocker redirects more signaling to the insulin-sensitizing and glucose tolerizing phospho-Akt. Thus, peripheral cells become more sensitive per molecule insulin, and consequently more glucose tolerant. This prediction is borne out in the Corticosteroid model. Corticosterone is a known model of Type 2 Diabetes and Metabolic Syndrome, as Corticosterone induces peripheral insulin insensitivity.

Test [3] relates to Methionine Choline-Deficient (MCD) Mouse model NASH. In words: Liver fibrosis markers in the MCD model of Non-alcoholic Steatohepatitis (NASH). As to conditions: mice, MCD 8 weeks, 20 mg/kg orally the last 4 weeks, vs placebo. The test is classed as in vivo. This is another data set of the same source.

In the case of `O=C(NCCS(=O)(=O)Cc1ccccc1)N1CC=C(c2cccc3ccccc23)C1` [Compound 3], in test [1], the “Collagen 1a1 (Col1), liver, QRTPCR” value was “significantly reduced”; the “Matrix Metalloproteinase 2 (MMP2), liver, QRTPCR” value was “significantly reduced”; the “Tissue metallopeptidase inhibitor 1 (TIMP1), liver, QRTPCR” value is reported as “significantly reduced”; the “Transforming Growth Factor beta (TGF-b), liver, QRTPCR” value is recorded as “significantly reduced”. The “alpha-smooth muscle actin (aSMA), liver, QRTPCR” value in test [1] is listed as “significantly reduced”. In test [2], the “glucose tolerizing effect in the Corticosteroid model” value was “significantly glucose tolerizing”, the “GTT: glucose intolerance at time points after glucose administration” value is “reduced glucose intolerance significantly at 4 time points” and the “GTT Area Under the Curve (AUC): glucose intolerance relative to placebo” value was “significantly reduced glucose intolerance”. Also, the “liver fibrosis bio marker hydroxyproline” value in test [3] was “significantly reduced”.

Turning to `O=C(c1cccc(-n2cccc2)c1)N1CCOC(c2cccc(OC(F)F)c2)C1` (stereo not drawn) [Compound 5], in test [1], the “Collagen 1a1 (Col1), liver, QRTPCR” value is “significantly reduced”; the “Matrix Metalloproteinase 2 (MMP2), liver, QRTPCR” value was “significantly reduced”; the “Tissue metallopeptidase inhibitor 1 (TIMP1), liver, QRTPCR” value is on record as “significantly reduced”; the “Transforming Growth Factor beta (TGF-b), liver, QRTPCR” value is “significantly reduced”. For the same compound, the “alpha-smooth muscle actin (aSMA), liver, QRTPCR” value in test [1] was “significantly reduced”. In test [2], the “glucose tolerizing effect in the Corticosteroid model” value was “significantly glucose tolerizing”, the “GTT: glucose intolerance at time points after glucose administration” value is reported as “reduced glucose significantly at 2 time points” and the “GTT Area Under the Curve (AUC): glucose intolerance relative to placebo” value is “significantly reduced glucose intolerance”. Moreover, the “liver fibrosis bio marker hydroxyproline” value in test [3] was “significantly reduced”.
